# Results reported in patent publication US20220409573A1, “Hippocampus Regeneration And Memory Recovery” (INNOBIOSCIENCE, LLC, priority 2021, published 2022).
# Columns and labels:
# [1] = tested on: Aβ oligomers in the hippocampus of APPswe/PS-1 mice; test: Slot blot of Aβ oligomers with A11 antibody; type: in vivo
# Wnt target genes = test: PCR array of Wnt target genes in hippocampal neurons; type: cell-based, rat
# Description: Primary culture of rat hippocampal neurons. […] PCR-ARRAY. RNA from hippocampal neurons was extracted using Trizol. Quantification and purity of RNA preparations were checked by absorbance using Nanodrop ND-2000. Only preparations with a 260/280 nm ratio≥1.8, a 260/230 nm ratio ≥1,7 and no sign of RNA degradations, verified by agarose gel electrophoresis with Gel Red TM were used. Genomic DNA was degraded. Using RT2First-Strand cDNA Synthesis kit (SuperArray), 1 μg total RNA was reverse transcribed and then real-time PCR was performed by adding cDNA directly to PCR Master Mix, containing SYBR Green and ROX. The mixtures were then aliquoted into a 96-well PCR array plates, which profiles the expression of 84 Wnt target genes from rat. The PCR was run on ABI StepOnePlus, with 1 cycle of 10 min at 95° C. followed by 40 cycles of 15 s at 95° C. and 1 min at 60° C.
# (§1) Treatment of neuronal cultures. Primary hippocampal cultures of neurons 14 DIV were washed twice in neurobasal medium and maintained for 1 hour.
# [2] = tested on: Wnt/β-catenin pathway in hippocampal neurons; test: Wnt/β-catenin pathway activation in cultured hippocampal neurons (western blot, immunofluorescence); type: cell-based, rat
# Description: Primary culture of rat hippocampal neurons. Rat hippocampal cultures were prepared as previously described (Arrazola et al, 2009). On day 3 of culture, hippocampal cells were treated with […] 1-b-Darabinofuranosylcytosine (AraC) during 24 h to reduce the number of proliferating non-neuronal cells. […] PCR-ARRAY. RNA from hippocampal neurons was extracted using Trizol. Quantification and purity of RNA preparations were checked by absorbance using Nanodrop ND-2000. Only preparations with a 260/280 nm ratio≥1.8, a 260/230 nm ratio ≥1,7 and no sign of RNA degradations, verified by agarose gel electrophoresis with Gel Red TM were used. Genomic DNA was degraded. Using RT2First-Strand cDNA Synthesis kit (SuperArray), 1 μg total RNA was reverse transcribed and then real-time PCR was performed by adding cDNA directly to PCR Master Mix, containing SYBR Green and ROX. The mixtures were then aliquoted into a 96-well PCR array plates, which profiles the expression of 84 Wnt target genes from rat. The PCR was run on ABI StepOnePlus, with 1 cycle of 10 min at 95° C. followed by 40 cycles of 15 s at 95° C. and 1 min at 60° C. Cycle threshold (Ct) values were calculated for all the genes present on the array (Schmittgen & Livak, 2008).
# as §1
# Nuclear and cytoplasmatic extraction. Following a time-course treatment, neurons were washed with cold PBS and harvested in 600 μL of cold homogenization buffer (10 mM HEPES pH 7,9; 1,5 mM MgCl2; 10 mM KCl; 1 mM DTT). The cells were disrupted by 20 passed, back and forth, through a syringe of 1 mL. Lysates were centrifuged for 6 minutes at 700 g at 4° C. and the supernatant was removed. The precipitate was washed in 100 μL of buffer (20 mM HEPES pH=7,9; 420 mM NaCl; 1,5 mM MgCl2; 0,2 mM EDTA; 1 mM DTT; 25% glicerol) and centrifuged again to generate nuclear fraction. Cytosolic fractions were generated from the supernatantat 100.000 g for 1 h at 4° C. Both buffers were supplemented with protease inhibitors and serine-phosphatase. Nuclear and cytosolic fractions were subsequently subjected to western blotting.
# Immunoblotting. The samples were dissected on ice and immediately frozen in liquid nitrogen or processed has previously detailed (Inestrosa et al, 2011). Briefly, tissues were homogenized in RIPA buffer (10 mM Tris-Cl, pH 7.4, EDTA 5 mM, 1% NP-40, 1% sodium deoxycholate, and 1% SDS) supplemented with a protease inhibitor mixture (1 mM PMSF, 2 μg/mL aprotinin, 1 μg/mL pepstatin and 10 μg/mL benzamidine) and phosphatase inhibitors (25 mMNaF, 100 mM Na3VO4, 1 mM EDTA and 30 μM Na4P207) using a Potter homogenizator and then passed sequentially through different caliber syringes. Protein samples were centrifuged at 14000 rpm at 4° C. twice for 15 min. Protein concentration was determined using the BCA Protein Assay Kit (Pierce). Samples were resolved by […] 10% SDS-PAGE and transferred to a PVDF membrane. The reactions were followed by incubation with anti-mouse, anti-goat or anti-rabbit IgG peroxidase conjugated (Pierce, Rockford, Ill.) and developed using an ECL kit (Western Lightning Plus ECL, PerkinElmer).
# Immunofluorescence. Hippocampal neurons were seeded onto poly-L-lysine-coated cover slips in 24-well culture plates at a density of 5×10^4 cellsper well, as described previously (Arrazola et al, 2009; Chacon et al, 2008). A mouse monoclonal anti-b-catenin was used. Cells were extensively washed with PBS and then incubated with Alexa 488-conjugated anti-mouse IgG for 1 h at room temperature. Cells were mounted in mounting medium and analyzed in a Carl-Zeiss Confocal Laser Microscope.
# [3] = 9 h treatment, of the 86 genes analyzed
# [4] = different concentrations for 6 h, 14 DIV neurons
smiles,measurement,setting,value
"C=C1CC[C@@H]2C(C)(CO)[C@H](O)CC[C@@]2(C)C1C/C=C1/C(=O)OC[C@H]1O (stereo in doubt) [ANDRO, 3-(2-(Decahydro-6-hydroxy-5-(hydroxymethyl)-5,8a-dimethyl-2-methylenenaphthyl)ethylidene)dihydro-4-hydroxyfuran-2(3H)-one]",level of Aβ oligomers (A11 slot-blot),[1]; 7 month-old APPswe/PS-1 mice,did not show significant changes
same,levels of Aβ-oligomers (A11 slot blot),[1]; FIG. 3G (old APPswe/PS-1 mice per legend),did not show significant changes
same,Cdh-1 gene expression,Wnt target genes,differential expression
same,number of Wnt target genes specifically modulated,Wnt target genes; [3],3 genes
same,number of changed Wnt target genes shared by ANDRO and 6-BIO,Wnt target genes; [3],4 genes
same,Ets2 gene expression,Wnt target genes; after Bonferroni correction,down-regulation of Ets2 gene
same,β-catenin levels by immunofluorescence,"[2]; 5 μM for 6 h, 14 DIV neurons",increased β-catenin levels
same,time of peak accumulation of cytoplasmic and nuclear β-catenin,[2]; ANDRO 10 μM time course,9 h
same,time of maximum increase of the inhibited form of GSK-3β,"[2]; ANDRO 10 μM time course, cytoplasmic fraction",6 h
same,accumulation of β-catenin (western blot),[2]; [4],accumulation of β-catenin in a concentration-dependent manner
same,active form of GSK-3β (phosphor-Tyr-216),[2]; [4],decrease in the active form
same,inhibited form of GSK-3β (phospho-Ser-9),[2]; [4],increase in the inhibited form of the enzyme
